Assay results as given in patent US20110166112A1, “METHOD FOR STIMULATING PLATELET PRODUCTION” (Eisai, Inc., priority 2009, published 2011).
“And” between values parts separate entries of the source, which are not always exact repeats. Equal entries are not always repeated.

Test system: subjects with chronic idiopathic thrombocytopenic purpura (ITP)
Experiment: Phase 2 double-blind placebo-controlled dose-ranging 28-day study of E5501 tablets: platelet count response (responder rate)
Type: in vivo, human
Details: for subjects with sustained platelet increases that met the criteria for positive response: 28 days
Procedure: This was a phase 2, multi-center, double-blind, randomized, placebo-controlled, dose-ranging, parallel group study of E5501 tablets, used in the treatment of subjects with chronic idiopathic thrombocytopenic purpura (ITP) refractory to or relapsed after at least one prior ITP therapy. Subjects who met all entry criteria were randomly assigned in a 3:3:3:3:1 ratio to one of the following five treatment groups dosed daily for 28 days: 1) E5501 2.5 mg; 2) E5501 5 mg; 3) E5501 10 mg; 4) E5501 20 mg; or 5) placebo (PBO). Each E5501 dosing group consisted of 15 subjects while the PBO group consisted of 5 subjects. All study subjects were evaluated weekly (days 7, 14, 21 and 28) for safety and efficacy while receiving study treatment, with a final assessment for safety and effectiveness performed 4 weeks after the last study dose (day 56) unless the subject entered the follow-on study. Platelet counts were also measured on day 3 and day 5.
The primary objective of this study was to assess platelet count response to E5501 on day 28. The response rate was defined as the proportion of subjects who were not on steroids with a screening visit B platelet count <30,000/mm^3 and who achieved a platelet count ≧50,000/mm^3, together with the proportion of subjects receiving steroids with a screening visit B platelet count ≧30,000/mm^3 but <50,000/mm^3 who achieved a platelet count ≧20,000/mm^3 above their screening visit B platelet count. Secondary objectives of the study included the evaluation of other markers of effectiveness, including changes in peripheral blood platelet count, the proportion of subjects who achieved a platelet count ≧50,000/mm^3 and ≧100,000/mm^3, and the proportion of subjects who achieved a doubling of their platelet count at screening visit B and the assessment of the safety and tolerability of E5501.
Primary efficacy endpoint. The primary endpoint in this study was E5501 responder rate on day 28. A responder is defined as a subject with screening visit B platelet count <30,000/mm^3 who achieves a platelet count ≧50,000/mm^3 or a subject receiving steroids with a screening visit B platelet count ≧30,000/mm^3 but <50,000/mm^3 who achieves a platelet count ≧20,000/mm^3 above their screening visit B platelet count.
The secondary endpoints included changes from screening visit B in peripheral blood platelet counts over time; the proportion of subjects who achieved a platelet count of ≧50,000/mm^3 or ≧100,000/mm^3 on day 28 and the proportion of subjects whose platelet count doubled compared to their platelet count at Screening Visit B.
The populations of interest were defined as follows: • The randomized population included all subjects who were randomized into the study. • The safety population included all randomized subjects who receive at least one dose of study drug and have at least one safety assessment. • The pharmacokinetic (PK) population included all subjects who provided blood sample for analysis of E5501. A subject was included in this population if the subject had at least one blood draw for PK assessment. • The full analysis set (FAS) included all subjects who provided adequate data to derive at least one efficacy assessment. […] The day 28 visit window was defined to be from day 25, to last dose day+1, inclusively; • Other major protocol violations that impacted the platelet endpoint evaluation. Results from Planned Analyses
Primary Efficacy Endpoint. The analysis of efficacy was performed both on the FAS population and the PP population at day 28 visit with LOCF and observed case (OC) approaches. The primary analysis population was the FAS. Fisher's exact test was used to examine the difference of response rates among each treatment pair. All p-values are nominal without adjustment for multiplicity.
Secondary Efficacy Endpoint. Analyses for secondary efficacy endpoints were performed by treatment group and by analysis visit using both LOCF and OC methods. […]

[1] = Day 3, FAS, Observed Case, 2.5 mg
[2] = Day 3, FAS, Observed Case, 5 mg
[3] = Day 3, FAS, Observed Case, 10 mg
[4] = Day 3, FAS, Observed Case, 20 mg
[5] = Day 3, FAS, Observed Case, Total E5501
[6] = Day 5, FAS, Observed Case, 2.5 mg
[7] = Day 5, FAS, Observed Case, 5 mg
[8] = Day 5, FAS, Observed Case, 10 mg
[9] = Day 5, FAS, Observed Case, 20 mg
[10] = Day 5, FAS, Observed Case, Total E5501
[11] = Day 28, Baseline Platelet Cnt. >15K/mm^3, 2.5 mg
[12] = Day 28, Baseline Platelet Cnt. >15K/mm^3, 5 mg
[13] = Day 28, Baseline Platelet Cnt. >15K/mm^3, 10 mg
[14] = Day 28, Baseline Platelet Cnt. >15K/mm^3, 20 mg
[15] = Day 28, Baseline Platelet Cnt. >15K/mm^3, Total E5501
[16] = Day 28, Baseline Platelet Cnt. ≦15K/mm^3, 2.5 mg
[17] = Day 28, Baseline Platelet Cnt. ≦15K/mm^3, 5 mg
[18] = Day 28, Baseline Platelet Cnt. ≦15K/mm^3, 10 mg
[19] = Day 28, Baseline Platelet Cnt. ≦15K/mm^3, 20 mg
[20] = Day 28, Baseline Platelet Cnt. ≦15K/mm^3, Total E5501
[21] = Day 28, Full Analysis Population, LOCF, 2.5 mg
[22] = Day 28, Full Analysis Population, LOCF, 5 mg
[23] = Day 28, Full Analysis Population, LOCF, 10 mg
[24] = Day 28, Full Analysis Population, LOCF, 20 mg
[25] = Day 28, Full Analysis Population, LOCF, Total E5501
[26] = Day 28, No Previous History of Splenectomy, 2.5 mg
[27] = Day 28, No Previous History of Splenectomy, 5 mg

O=C(Nc1nc(-c2cc(Cl)cs2)c(N2CCN(C3CCCCC3)CC2)s1)c1cnc(N2CCC(C(=O)O)CC2)c(Cl)c1 [E5501, 1-(3-chloro-5-{[4-(4-chlorothiophen-2-yl)-5-(4-cyclohexylpiperazin-1-yl)thiazol-2-yl]carbamoyl}pyridine-2-yl)piperidine-4-carboxylic acid]
subjects refractory to splenectomy who responded (20 mg): 66.7%
reduction in the response rate from day 7 to 28 days (20 mg dose group): about 15%
platelet counts from baseline (FIG. 1) (28 day study period, 2.5-20 mg): markedly increased platelet counts from baseline
subjects with sustained platelet increases that met the criteria for positive response (5 mg): 28.6%
subjects with sustained platelet increases that met the criteria for positive response (10 mg): 41.7%
subjects with sustained platelet increases that met the criteria for positive response (20 mg): 76.9% and ~80%
Responder, No [1]: 4 (100.0) n (%)
Responder, Yes [1]: 0 n (%)
Responder, No [2]: 3 (100.0) n (%)
Responder, Yes [2]: 0 n (%)
Responder, No [3]: 2 (100.0) n (%)
Responder, Yes [3]: 0 n (%)
Responder, No [4]: 3 (75.0) n (%)
Responder, Yes [4]: 1 (25.0) n (%)
Responder, No [5]: 12 (92.3) n (%)
Responder, Yes [5]: 1 (7.7) n (%)
Responder, No [6]: 4 (100.0) n (%)
Responder, Yes [6]: 0 n (%)
Responder, No [7]: 2 (33.3) n (%)
Responder, Yes [7]: 4 (66.7) n (%)
Responder, No [8]: 3 (75.0) n (%)
Responder, Yes [8]: 1 (25.0) n (%)
Responder, No [9]: 4 (80.0) n (%)
Responder, Yes [9]: 1 (20.0) n (%)
Responder, No [10]: 13 (68.4) n (%)
Responder, Yes [10]: 6 (31.6) n (%)
Nonresponder (Day 7, FAS, LOCF, 2.5 mg): 14 (93.3) n (%)
Responder (Day 7, FAS, LOCF, 2.5 mg): 1 (6.7) n (%)
Nonresponder (Day 7, FAS, LOCF, 5 mg): 5 (33.3) n (%)
Responder (Day 7, FAS, LOCF, 5 mg): 10 (66.7) n (%)
Nonresponder (Day 7, FAS, LOCF, 10 mg): 5 (35.7) n (%)
Responder (Day 7, FAS, LOCF, 10 mg): 9 (64.3) n (%)
Nonresponder (Day 7, FAS, LOCF, 20 mg): 1 (6.7) n (%)
Responder (Day 7, FAS, LOCF, 20 mg): 14 (93.3) n (%)
Nonresponder (Day 7, FAS, LOCF, Total E5501): 25 (42.4) n (%)
Responder (Day 7, FAS, LOCF, Total E5501): 34 (57.6) n (%)
Nonresponder (Day 14, FAS, LOCF, 2.5 mg): 12 (80.0) n (%)
Responder (Day 14, FAS, LOCF, 2.5 mg): 3 (20.0) n (%)
Nonresponder (Day 14, FAS, LOCF, 5 mg): 6 (40.0) n (%)
Responder (Day 14, FAS, LOCF, 5 mg): 9 (60.0) n (%)
Nonresponder (Day 14, FAS, LOCF, 10 mg): 3 (21.4) n (%)
Responder (Day 14, FAS, LOCF, 10 mg): 11 (78.6) n (%)
Nonresponder (Day 14, FAS, LOCF, 20 mg): 1 (6.7) n (%)
Responder (Day 14, FAS, LOCF, 20 mg): 14 (93.3) n (%)
Nonresponder (Day 14, FAS, LOCF, Total E5501): 22 (37.3) n (%)
Responder (Day 14, FAS, LOCF, Total E5501): 37 (62.7) n (%)
Nonresponder (Day 21, FAS, LOCF, 2.5 mg): 13 (86.7) n (%)
Responder (Day 21, FAS, LOCF, 2.5 mg): 2 (13.3) n (%)
Nonresponder (Day 21, FAS, LOCF, 5 mg): 6 (40.0) n (%)
Responder (Day 21, FAS, LOCF, 5 mg): 9 (60.0) n (%)
Nonresponder (Day 21, FAS, LOCF, 10 mg): 7 (50.0) n (%)
Responder (Day 21, FAS, LOCF, 10 mg): 7 (50.0) n (%)
Nonresponder (Day 21, FAS, LOCF, 20 mg): 2 (13.3) n (%)
Responder (Day 21, FAS, LOCF, 20 mg): 13 (86.7) n (%)
Nonresponder (Day 21, FAS, LOCF, Total E5501): 28 (47.5) n (%)
Responder (Day 21, FAS, LOCF, Total E5501): 31 (52.5) n (%)
Responder, No [11]: 8 (80.0) n (%)
Responder, Yes [11]: 2 (20.0) n (%)
Responder, No [12]: 6 (46.2) n (%)
Responder, Yes [12]: 7 (53.8) n (%)
Responder, No [13]: 4 (44.4) n (%)
Responder, Yes [13]: 5 (55.6) n (%)
Responder, No [14]: 2 (18.2) n (%)
Responder, Yes [14]: 9 (81.8) n (%)
Responder, No [15]: 20 (46.5) n (%)
Responder, Yes [15]: 23 (53.5) n (%)
Responder, No [16]: 5 (100.0) n (%)
Responder, Yes [16]: 0 n (%)
Responder, No [17]: 1 (50.0) n (%)
Responder, Yes [17]: 1 (50.0) n (%)
Responder, No [18]: 3 (60.0) n (%)
Responder, Yes [18]: 2 (40.0) n (%)
Responder, No [19]: 1 (25.0) n (%)
Responder, Yes [19]: 3 (75.0) n (%)
Responder, No [20]: 10 (62.5) n (%)
Responder, Yes [20]: 6 (37.5) n (%)
Responder, No [21]: 13 (86.7) n (%)
Responder, Yes [21]: 2 (13.3) n (%)
Responder, No [22]: 7 (46.7) n (%)
Responder, Yes [22]: 8 (53.3) n (%)
Responder, No [23]: 7 (50.0) n (%)
Responder, Yes [23]: 7 (50.0) n (%)
Responder, No [24]: 3 (20.0) n (%)
Responder, Yes [24]: 12 (80.0) n (%)
Responder, No [25]: 30 (50.8) n (%)
Responder, Yes [25]: 29 (49.2) n (%)
Responder, No [26]: 9 (90.0) n (%)
Responder, Yes [26]: 1 (10.0) n (%)
Responder, No [27]: 5 (45.5) n (%)
Responder, Yes [27]: 6 (54.5) n (%)
Responder, No (Day 28, No Previous History of Splenectomy, 10 mg): 5 (45.5) n (%)
